13 compounds from patent publication US20240131168A1, “NAPHTHALENE RING-CONTAINING COMPOUND, PHARMACEUTICAL COMPOSITION CONTAINING SAME, AND USE THEREOF” (JIANGSU YAHONG MEDITECH CO., LTD., priority 2021, published 2024) can be followed below.

What is called inhibition is the percentage by which the read-out fell short of the control. One may read the IC50 as the point on the concentration scale where inhibition reaches its midpoint.

Holding throughout (type): cell-based
One assay relates to TamR-MCF-7. In words: CellTiter-Glo cell proliferation inhibition, TamR-MCF-7. To be noted: 144 h; TamR-MCF-7 (CTG), 6 days, starting concentration 10 μM; read-out: IH % max (maximum inhibition percentage). The source says:
(§1) 1. Cell line • (1) Breast cancer cell lines and their culture media: • MCF-7 (ATCC; Cat. No.: HTB-22), a Luminal A breast cancer cell; • TamR-MCF-7 (ATCC; Cat. No.: CRL-3435), a breast cancer cell; • MCF-7 ER^D538G: a Luminal A breast cancer cell obtained by constructing MCF-7 (ATCC; Cat. No.: HTB-22) using CRISPR-Cas9 gene editing technology; • MCF-7 ER^Y537S: a Luminal A breast cancer cell obtained by constructing MCF-7 (ATCC; Cat. No.: HTB-22) using CRISPR-Cas9 gene editing technology; • MDA-MB-231: (manufacturer: Nanjing CoBioer Biosciences Co., Ltd.), a triple-negative breast cancer cell; • MDA-MB-468: (manufacturer: Nanjing CoBioer Biosciences Co., Ltd.), a triple-negative breast cancer cell.
(§2) Herein, the culture medium of MCF-7, TamR-MCF-7, MCF-7 ER^D538G, and MCF-7 ER^Y537S was EMEM; • the culture medium of MDA-MB-231 and MDA-MB-468 was DMEM.
(§3) 2. Reagents • Culture medium EMEM (Gibco, 1964507) • Culture medium DMEM (Gibco, 12430-054) • Fetal bovine serum (Gibco, 10091148) • Penicillin-streptomycin double antibody (Gibco, S110JV) • DPBS (Gibco, 14190-144) • CellTiter-Glo® assay kit (Promega, G7573) • Trypsin (0.25%) (Gibco, 25200-056) • DMSO (Sigma, D2650)
(§4) 3. Instruments • Biosafety cabinet (AIRTECH, BSC-1300A II) • Automated cell counter (Life Technologies, countess II) • Multifunctional microplate reader (Biotek, H1FM) • Orbital shaker (Hangzhou Allsheng Instruments Co., Ltd., OS-100) • XLFIT 5.3 (Inforstack Shanghai Co., Ltd.)
(§5) For this test method, the following experiments were performed in a biosafety cabinet, with the specific steps as follows: • (1) Cells were inoculated in a 96-well plate. One day later, the previous culture medium was poured off, 5 mL of DPBS was added to wash the cells, and then DPBS was pipetted and discarded. An appropriate amount of trypsin was then added. The plate was digested in a 37° C., 5% CO2 cell incubator for about 2 to 5 minutes and then taken out. Anew corresponding culture medium was added, and pipetted up and down to resuspend the cells evenly. The cells were then counted using an automated cell counter. • (2) Each cell was inoculated in columns 1 to 11 of a 96-well plate (Corning, Cat. No.: 3610) at a density of 1,000 or 2,000 cells per well in 100 μL of culture medium, and 100 μL of the corresponding culture medium without cells was added to the wells in column 12. The plate was then placed in a 37° C., 5% CO2 incubator for 24 hours. • (3) The compound of the present disclosure and the control drug fulvestrant (Selleck; Cat. No.: S1191) were then 4-fold serially diluted to 10 dose points starting at 10 μM. 10 μL of the serially diluted compound was pipetted and added to 100 μL of cells in columns 1 to 10, and 10 μL of the corresponding culture medium containing 0.33 v % DMSO was added to both columns 11 and 12. The plate was incubated in a 37° C., 5% CO2 incubator for 6 days or 72 hours (Note: column 11 was used as a MAX well with cells but without compound; column 12 was used as a MIN well without cells […]). • (4) The cell viability detection reagent in the CellTiter-Glo® assay kit was then added to the 96-well plate at 50 μL per well according to the instructions, and shaken on an orbital shaker in the dark for 5 to 10 minutes. The cell viability was then measured using a multifunctional microplate reader. Finally, the inhibition of cell proliferation by the compound of the present disclosure was plotted by XLFIT software, and the IC50 value (half inhibitory concentration) and the IH % max (maximum inhibition percentage) of the compound of the present disclosure were calculated.
A general note: Cellular ATP, detected with luciferase, serves as a proxy for viable cell number.

For another assay, the system named is MCF-7. Nature of the assay: CellTiter-Glo cell proliferation inhibition, MCF-7 (Effect Example 2). To be noted: Homo sapiens, MCF7, 144 h, MCF-7 (CTG), 6 days, starting concentration 10 μM; for inhibition at up to 10 µM: read-out: IH % max (maximum inhibition percentage).
Description: as §1, §2, §3, §4, §5

A further assay has as its system MCF-7 ER^D538G. In words: CellTiter-Glo cell proliferation inhibition, MCF-7 ER^D538G. Particulars: Homo sapiens, MCF7, 144 h, MCF-7 ER^D538G (CTG), 6 days, starting concentration 10 μM; for inhibition at up to 10 µM: read-out: IH % max (maximum inhibition percentage).
Description: as §1, §2, §3, §4, §5

Another assay deals with MCF-7 ER^Y537S. In words: CellTiter-Glo cell proliferation inhibition, MCF-7 ER^Y537S. To be noted: Homo sapiens, MCF7, 144 h; MCF-7 ER^Y537S (CTG), 6 days, starting concentration 10 μM; read-out: IH % max (maximum inhibition percentage).
Description: as §1, §2, §3, §4, §5

The subject of the next assay is MDA-MB-468. Nature of the assay: CellTiter-Glo cell proliferation inhibition, MDA-MB-468. Particulars: Homo sapiens, 144 h; MDA-MB-468 (CTG), 6 days, starting concentration 10 μM; read-out: IH % max (maximum inhibition percentage).
Description: as §1, §2, §3, §4, §5
Compounds D64 to D69 were tested for MDA-MB-231 (CTG) and MDA-MB-468 (CTG) with an incubation time of 72 hours in the incubator.

On to `CS(=O)(=O)c1ccc(-c2ccc3cc(O)ccc3c2Oc2ccc(OCCOCCOCCOCCN3CCN(c4ccc5c(c4)CN(C4CCC(=O)NC4=O)C5=O)CC3)cc2)cc1` (centres unmarked) [Compound D27], for which the inhibition at up to 10 µM came to 40% with TamR-MCF-7, 60% in the assay on MCF-7 and 69% with MCF-7 ER^D538G. This compound came in with an IC50 with MCF-7 of 0.222 µM.

As to `CCN(CCOCCOCCNc1cccc2c1C(=O)N(C1CCC(=O)NC1=O)C2=O)CCOc1ccc(Oc2c(-c3ccc(S(C)(=O)=O)cc3)ccc3cc(O)ccc23)cc1` (centres unmarked) [Compound D42], the inhibition at up to 10 µM in the assay with MCF-7 ER^Y537S was 46%; in the assay with MCF-7 it was 37%; in the assay on MDA-MB-468, 39%; in the assay with MCF-7 ER^D538G, 77%. In the assay with MCF-7 ER^D538G, the IC50 was 0.283 µM.

Regarding `CS(=O)(=O)c1ccc(-c2ccc3cc(O)ccc3c2Oc2ccc(OCCN3CCN(c4ccc5c(c4)C(=O)N(C4CCC(=O)NC4=O)C5)CC3)cc2)cc1` (centres unmarked) [Compound D32, 3-(6-(4-(2-(4-((6-hydroxy-2-(4-(methylsulfonyl)phenyl)naphthalen-1-yl)oxy)phenoxy)ethyl)piperazin-1-yl)-1-oxoisoindolin-2-yl)piperidine-2,6-dione], the inhibition at up to 10 µM with MCF-7 ER^Y537S was 33%; in the assay with MCF-7 it was 39%; with MCF-7 ER^D538G it was 38%.

On to `CCN(CCOCCOCCOCCOc1ccc2c(c1)C(=O)N(C1CCC(=O)NC1=O)C2=O)CCOc1ccc(Oc2c(-c3ccc(S(C)(=O)=O)cc3)ccc3cc(O)ccc23)cc1` (centres unmarked) [Compound D48, 2-(2,6-dioxopiperidin-3-yl)-5-((3-ethyl-1-(4-((6-hydroxy-2-(4-(methylsulfonyl)phenyl)naphthalen-1-yl)oxy)phenoxy)-6,9,12-trioxa-3-azatetradecan-14-yl)oxy)isoindoline-1,3-dione], for which the inhibition at up to 10 µM came to 41% with MCF-7 ER^Y537S, 32% in the assay on MCF-7 and 66% in the assay on MCF-7 ER^D538G.

On to `CS(=O)(=O)c1ccc(-c2ccc3cc(O)ccc3c2Oc2ccc(OCCOCCOCCOCCOc3cccc4c3CN(C3CCC(=O)NC3=O)C4=O)cc2)cc1` (centres unmarked) [Compound D14, 3-(4-(2-(2-(2-(2-(4-((6-hydroxy-2-(4-(methylsulfonyl)phenyl)naphthalen-1-yl)oxy)phenoxy)ethoxy)ethoxy)ethoxy)ethoxy)-1-oxoisoindolin-2-yl)piperidine-2,6-dione], for which the results for the inhibition at up to 10 µM in the assay on MCF-7, in the assay with MDA-MB-468 and in the assay with MCF-7 ER^D538G were 42%, 32% and 40%, respectively.

As for `CCN(CCOCCOCCOc1cccc2c1C(=O)N(C1CCC(=O)NC1=O)C2=O)CCOc1ccc(Oc2c(-c3ccc(S(C)(=O)=O)cc3)ccc3cc(O)ccc23)cc1` (centres unmarked) [Compound D41], the inhibition at up to 10 µM amounted to 50% with MCF-7 ER^Y537S, 31% in the assay with MDA-MB-468 and 65% with MCF-7 ER^D538G.

As for `CCN(CCOCC(=O)N1CCN(c2cccc3c2CN(C2CCC(=O)NC2=O)C3=O)CC1)CCOc1ccc(Oc2c(-c3ccc(S(C)(=O)=O)cc3)ccc3cc(O)ccc23)cc1` (centres unmarked) [Compound D52], the inhibition at up to 10 µM in the assay on TamR-MCF-7 was 39.4%; in the assay with MCF-7, 52.6%.

Regarding `CCN(CCOCCOCCOCCOc1cccc2c1C(=O)N(C1CCC(=O)NC1=O)C2=O)CCOc1ccc(Oc2c(-c3ccc(S(C)(=O)=O)cc3)ccc3cc(O)ccc23)cc1` (centres unmarked) [Compound D36, 2-(2,6-dioxopiperidin-3-yl)-4-((3-ethyl-1-(4-((6-hydroxy-2-(4-(methylsulfonyl)phenyl)naphthalen-1-yl)oxy)phenoxy)-6,9,12-trioxa-3-azatetradecan-14-yl)oxy)isoindoline-1,3-dione], the inhibition at up to 10 µM with MCF-7 ER^Y537S came out at 51%; in the assay with MDA-MB-468, 37%; in the assay with MCF-7 ER^D538G, 62%.

As for `CCN(CCOCCOCCNc1ccc2c(c1)C(=O)N(C1CCC(=O)NC1=O)C2=O)CCOc1ccc(Oc2c(-c3ccc(S(C)(=O)=O)cc3)ccc3cc(O)ccc23)cc1` (centres unmarked) [Compound D45], the inhibition at up to 10 µM was found to be 33% in the assay on TamR-MCF-7, 44% in the assay with MCF-7 ER^Y537S, 35% in the assay with MCF-7 and 75% in the assay on MCF-7 ER^D538G. In addition, the IC50 in the assay with MCF-7 ER^D538G worked out at 0.198 µM.

Regarding `CCN(CCOc1ccc(Oc2c(-c3ccc(S(C)(=O)=O)cc3)ccc3cc(O)ccc23)cc1)CCN1CCN(c2ccc3c(c2)CN(C2CCC(=O)NC2=O)C3=O)CC1` (centres unmarked) [Compound D57, 3-(5-(4-(2-(ethyl(2-(4-((6-hydroxy-2-(4-(methylsulfonyl)phenyl)naphthalen-1-yl)oxy)phenoxy)ethyl)amino)ethyl)piperazin-1-yl)-1-oxoisoindolin-2-yl)piperidine-2,6-dione], the inhibition at up to 10 µM in the assay on MCF-7 ER^Y537S was found to be 46%; with MCF-7 ER^D538G, 51%.

On to `CCN(CCOCCNc1ccc2c(c1)C(=O)N(C1CCC(=O)NC1=O)C2=O)CCOc1ccc(Oc2c(-c3ccc(S(C)(=O)=O)cc3)ccc3cc(O)ccc23)cc1` (centres unmarked) [Compound D38, […]], for which the inhibition at up to 10 µM came to 47% in the assay with MCF-7 ER^Y537S and 54% in the assay with MCF-7 ER^D538G.

In the case of `C[C@@H]1CN(CCOc2ccc(Oc3c(-c4ccc(S(C)(=O)=O)cc4)ccc4cc(O)ccc34)cc2)[C@@H](C)CN1CCN1CCN(c2ccc3c(c2)C(=O)N(C2CCC(=O)NC2=O)C3)CC1` (stereo partly drawn) [Compound D61, 3-(6-(4-(2-((2R,5S)-4-(2-(4-((6-hydroxy-2-(4-(methylsulfonyl)phenyl)naphthalen-1-yl)oxy)phenoxy)ethyl)-2,5-dimethylpiperazin-1-yl)ethyl)piperazin-1-yl)-1-oxoisoindolin-2-yl)piperidine-2,6-dione], the inhibition at up to 10 µM was 40.2% in the assay with TamR-MCF-7, 45.6% in the assay on MCF-7 and 32.7% in the assay on MDA-MB-468.

On to `CS(=O)(=O)c1ccc(-c2ccc3cc(O)ccc3c2Oc2ccc(OCCOCCOCCN3CCN(c4ccc5c(c4)C(=O)N(C4CCC(=O)NC4=O)C5=O)CC3)cc2)cc1` (centres unmarked) [Compound D16, 2-(2,6-dioxopiperidin-3-yl)-5-(4-(2-(2-(2-(4-((6-hydroxy-2-(4-(methylsulfonyl)phenyl)naphthalen-1-yl)oxy)phenoxy)ethoxy)ethoxy)ethyl)piperazin-1-yl)isoindoline-1,3-dione], for which the inhibition at up to 10 µM turned out to be 33% in the assay with TamR-MCF-7, 51% with MCF-7 and 47% with MCF-7 ER^D538G.
